According to ChEMBL document CHEMBL4602657, “Design and evaluation of Nrf2 activators with 1,3,4-oxa/thiadiazole core as neuro-protective agents against oxidative stress in PC-12 cells” (Bioorg Med Chem Lett, 2020):
Values after ≈ are worked out from the molar mass of the structure shown. Active and inactive are the calls of the source. No cut-off for these calls is given here.

Columns and labels:
[1] = molecular target: T1, Nuclear factor erythroid 2-related factor 2 (Homo sapiens) (UniProt Q16236); test: Activation of Nrf2 in human HepG2-ARE-C8 cells assessed as fold change at 0.1 uM measured after 12 hrs by luciferase reporter gene assay relative to control; type: cell-based
T1 sequence (whole entry): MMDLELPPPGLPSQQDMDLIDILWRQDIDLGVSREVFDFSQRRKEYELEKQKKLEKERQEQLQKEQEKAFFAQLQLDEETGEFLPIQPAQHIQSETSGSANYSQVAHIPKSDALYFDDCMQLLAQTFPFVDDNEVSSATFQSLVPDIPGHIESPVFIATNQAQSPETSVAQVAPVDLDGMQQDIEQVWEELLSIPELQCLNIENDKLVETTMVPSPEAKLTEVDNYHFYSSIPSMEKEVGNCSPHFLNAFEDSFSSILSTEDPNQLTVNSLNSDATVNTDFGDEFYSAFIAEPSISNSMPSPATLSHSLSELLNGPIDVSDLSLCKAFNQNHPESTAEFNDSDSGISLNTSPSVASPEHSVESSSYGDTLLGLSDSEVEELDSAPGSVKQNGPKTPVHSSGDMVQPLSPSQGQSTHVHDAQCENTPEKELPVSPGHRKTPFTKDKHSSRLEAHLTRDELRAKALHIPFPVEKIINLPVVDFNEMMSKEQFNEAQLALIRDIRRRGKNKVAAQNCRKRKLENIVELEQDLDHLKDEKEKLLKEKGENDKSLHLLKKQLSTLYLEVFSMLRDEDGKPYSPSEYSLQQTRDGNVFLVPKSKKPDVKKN

[2] = molecular target: T1, Nuclear factor erythroid 2-related factor 2 (Homo sapiens); test: Activation of Nrf2 in human HepG2-ARE-C8 cells assessed as fold change at 1 uM measured after 12 hrs by luciferase reporter gene assay relative to control; type: cell-based
[3] = molecular target: T1, Nuclear factor erythroid 2-related factor 2 (Homo sapiens); test: Activation of Nrf2 in human HepG2-ARE-C8 cells assessed as fold change at 10 uM measured after 12 hrs by luciferase reporter gene assay relative to control; type: cell-based
[4] = molecular target: T1, Nuclear factor erythroid 2-related factor 2 (Homo sapiens); test: Activation of Nrf2 in human HepG2-ARE-C8 cells assessed as fold change at 20 uM measured after 12 hrs by luciferase reporter gene assay relative to control; type: cell-based
[5] = molecular target: T1, Nuclear factor erythroid 2-related factor 2 (Homo sapiens); test: Activation of Nrf2 in human HepG2-ARE-C8 cells assessed as fold change at 40 uM measured after 12 hrs by luciferase reporter gene assay relative to control; type: cell-based
[6] = molecular target: T1, Nuclear factor erythroid 2-related factor 2 (Homo sapiens); test: Activation of Nrf2 in human HepG2-ARE-C8 cells assessed as fold change at 80 uM measured after 12 hrs by luciferase reporter gene assay relative to control; type: cell-based
[7] = Lipophilicity, logD of the compound at pH 7.4; type: physicochemical; conditions: buffer
[8] = Intrinsic aqueous solubility of the compound; type: physicochemical; conditions: read-out: Intrinsic_solubility
[9] = tested on: PC-12; test: Cytotoxicity against rat PC12 cells assessed as reduction in cell viability incubated for 24 hrs by MTT assay; type: cell-based; conditions: PC-12, 24 h
[10] = tested on: SH-SY5Y; test: Cytotoxicity against human SH-SY5Y cells assessed as reduction in cell viability at 100 uM by MTT assay; type: cell-based
[11] = tested on: SH-SY5Y; test: Neuroprotective activity in human SH-SY5Y cells assessed as reduction in H2O2-induced cell damage at 5 uM preincubated for 6 hrs followed by H2O2 treatment and measured after 12 hrs by MTT assay; type: functional, cell-based
[12] = tested on: SH-SY5Y; test: Neuroprotective activity in human SH-SY5Y cells assessed as reduction in H2O2-induced cell damage at 10 to 20 uM preincubated for 6 hrs followed by H2O2 treatment and measured after 12 hrs by MTT assay; type: functional, cell-based
[13] = tested on: PC-12; test: Upregulation of Nrf2 mRNA in rat PC12 cell incubated for 12 hrs by qRT-PCR analysis; type: functional, cell-based
[14] = tested on: PC-12; test: Upregulation of NQ-O1 mRNA in rat PC12 cell incubated for 12 hrs by qRT-PCR analysis; type: functional, cell-based
[15] = tested on: PC-12; test: Upregulation of HO-1 mRNA in rat PC12 cell incubated for 12 hrs by qRT-PCR analysis; type: functional, cell-based
[16] = tested on: PC-12; test: Upregulation of Nrf2 protein level in rat PC12 cell incubated for 12 hrs by Western blot analysis; type: functional, cell-based
[17] = tested on: PC-12; test: Upregulation of NQ-O1 protein level in rat PC12 cell incubated for 12 hrs by Western blot analysis; type: functional, cell-based
[18] = tested on: PC-12; test: Upregulation of HO-1 protein level in rat PC12 cell incubated for 12 hrs by Western blot analysis; type: functional, cell-based
[19] = Permeability of the compound by PAMPA; type: ADME; conditions: read-out: permeability

fold change (FC) [1] | fold change (FC) [2] | fold change (FC) [3] | fold change (FC) [4] | fold change (FC) [5] | fold change (FC) [6] | logD [7] | solubility [8] | Papp [19] | Structure (SMILES) | IC50 [9] | Activity [10] | Activity [11] | Activity [12] | Activity [13] | Activity [14] | Activity [15] | Activity [16] | Activity [17] | Activity [18]
0.9 | 1.6 | 1.58 | 3.15 | 5.18 | 9.1 |  |  |  | c1ccc(-c2ccc(-c3nnc(-c4ccc5nc[nH]c5c4)o3)cc2)cc1 |  |  |  |  |  |  |  |  |  | 
1.4 | 1.45 | 3.25 | 3.35 | 4.95 | 6.6 |  |  |  | Cc1ccc(-c2nnc(-c3ccc4nc[nH]c4c3)o2)cc1 |  |  |  |  |  |  |  |  |  | 
1.08 | 2.33 | 2.3 | 1.68 | 1.33 | 1.43 |  |  |  | CCCCc1ccc(-c2nnc(-c3ccc4nc[nH]c4c3)s2)cc1 |  |  |  |  |  |  |  |  |  | 
1.58 | 1.28 | 2.6 | 6.83 | 8.73 | 24.4 | 2.89 | 102 µM (≈ 28.7 µg/mL) |  | Fc1ccc(-c2nnc(-c3ccc4nc[nH]c4c3)o2)cc1 |  |  |  |  |  |  |  |  |  | 
1.7 | 2.35 | 6.7 | 9.15 | 13.5 | 19.1 |  |  |  | c1ccc(-c2nnc(-c3ccc4nc[nH]c4c3)o2)cc1 |  |  |  |  |  |  |  |  |  | 
2.2 | 5.75 | 19.4 | 17.4 | 22.2 | 24.6 |  |  |  | O=[N+]([O-])c1ccc(-c2nnc(-c3ccc4nc[nH]c4c3)s2)cc1 | > 500 µM | Non-Toxic | Active | inactive |  |  |  |  |  | 
1.4 | 1.65 | 1.33 | 2.35 | 1.78 | 2.83 |  |  |  | N#Cc1ccc(-c2nnc(-c3ccc4nc[nH]c4c3)o2)cc1 |  |  |  |  |  |  |  |  |  | 
1.5 | 1.9 | 7.68 | 12.2 | 20.1 | 33.8 |  |  |  | O=[N+]([O-])c1ccc(-c2nnc(-c3ccc4nc[nH]c4c3)o2)cc1 | > 100 µM | Non-Toxic | Active | inactive |  |  |  |  |  | 
1.45 | 2.38 | 1.35 | 1.65 | 1.75 | 1.63 |  |  |  | Fc1cccc(-c2nnc(-c3ccc4nc[nH]c4c3)o2)c1 |  |  |  |  |  |  |  |  |  | 
1.64 | 1.72 | 1.72 | 1.83 | 2.41 | 7.5 |  |  |  | COc1cccc(-c2nnc(-c3ccc4nc[nH]c4c3)o2)c1 |  |  |  |  |  |  |  |  |  | 
1.8 | 6.73 | 14.8 | 15.9 | 24.6 | 19.6 |  |  | 12.3 ×10⁻⁶ cm/s | CCCCc1ccc(-c2nnc(-c3ccc4nc[nH]c4c3)o2)cc1 | > 100 µM | Non-Toxic | inactive | Active | Dose-dependent effect | Dose-dependent effect | Dose-dependent effect | Dose-dependent effect | Dose-dependent effect | Dose-dependent effect
1.6 | 3.25 | 13.1 | 14.9 | 22.3 | 9.9 |  |  |  | Fc1ccc(-c2nnc(-c3ccc4nc[nH]c4c3)s2)cc1 | > 500 µM | Non-Toxic | inactive | Active |  |  |  |  |  | 
2.05 | 4.85 | 7.98 | 8.08 | 6.23 | 7.98 |  |  |  | Brc1ccc(-c2nnc(-c3ccc4nc[nH]c4c3)o2)cc1 |  |  |  |  |  |  |  |  |  | 
1.7 | 2.03 | 8.95 | 8.18 | 13.8 | 15.7 |  |  |  | c1ccc(-c2nnc(-c3ccc4nc[nH]c4c3)s2)cc1 |  |  |  |  |  |  |  |  |  | 
1.68 | 1.7 |  |  | 5.1 | 4.73 |  |  |  | CC(C)(C)c1cc(O)ccc1O |  |  |  |  |  |  |  |  |  | 
